Experiments:
Assay in all cases: Test D pre-/postemergence herbicide test
windgrass = format: in vivo, Apera spica-venti; settings: for Plant response rating: Postemergence, Windgrass, scale 0 to 100; for Plant response rating, Windgrass: Preemergence, scale 0 to 100 (0 no effect, 100 complete control)
Description: (§1) Seeds of plant species selected from bluegrass (annual bluegrass, Poa annua), blackgrass (Alopecurus myosuroides), canarygrass (littleseed canarygrass, Phalaris minor), chickweed (common chickweed, Stellaria media), galium (catchweed bedstraw, Galium aparine), bromegrass, downy (downy bromegrass, Bromus tectorum), field poppy (Papaver rhoeas), field violet (Viola arvensis), foxtail, green (green foxtail, Setaria viridis), deadnettle (henbit deadnettle, Lamium amplexicaule), ryegrass, Italian (Italian ryegrass, Lolium multiflorum), kochia (Kochia scoparia), lambsquarters (Chenopodium album), oilseed rape (Brassica napus), pigweed (Amaranthus retroflexus), chamomile (scentless chamomile, Matricaria inodora), Russian thistle (Salsola kali), speedwell (bird's-eye speedwell, Veronica persica), barley, spring (spring barley, Hordeum vulgare), wheat, spring (spring wheat, Triticum aestivum), buckwheat, wild (wild buckwheat, Polygonum convolvulus), mustard, wild (wild mustard, Sinapis arvensis), oat, wild (wild oat, Avena fatua), radish, wild (wild radish, Raphanus raphanistrum), […]), barley, winter (winter barley, Hordeum vulgare), and wheat, winter (winter wheat, Triticum aestivum) were planted into a silt loam soil and treated preemergence with test chemicals formulated in a non-phytotoxic solvent mixture which included a surfactant. At the same time, these species were planted in pots containing Redi-Earth® planting medium (Scotts Company, 14111 Scottslawn Road, Marysville, Ohio 43041) comprising spaghnum peat moss, vermiculite, wetting agent and starter nutrients and treated with postemergence applications of the test chemicals formulated in the same manner. Plants ranged in height from 2 to 18 cm (1- to 4-leaf stage). Treated plants and controls were maintained in a controlled growth environment for 7 to 21 days after which time all species were compared to controls and visually evaluated. Plant response ratings, summarized in Table D, are based on a scale of 0 to 100 where 0 is no effect and 100 is complete control. A dash (-) response means no test result.

oilseed rape = format: in vivo, Brassica napus; settings: for Plant response rating: Postemergence, Oilseed Rape, scale 0 to 100; for Plant response rating, Oilseed Rape: Preemergence, scale 0 to 100 (0 no effect, 100 complete control)
Description: as §1

wheat, spring = format: in vivo, Triticum aestivum; settings: for Plant response rating: Postemergence, Wheat, Spring, scale 0 to 100; for Plant response rating, Wheat, Spring: Preemergence, scale 0 to 100 (0 no effect, 100 complete control)
Description: as §1

wheat, winter = format: in vivo, Triticum aestivum; settings: for Plant response rating: Postemergence, Wheat, Winter, scale 0 to 100; for Plant response rating, Wheat, Winter: Preemergence, scale 0 to 100 (0 no effect, 100 complete control)
Description: as §1

speedwell = format: in vivo, Veronica persica; settings: for Plant response rating: Postemergence, Speedwell, scale 0 to 100; for Plant response rating, Speedwell: Preemergence, scale 0 to 100 (0 no effect, 100 complete control)
Description: as §1

pigweed = format: in vivo, Amaranthus retroflexus; settings: for Plant response rating: Postemergence, Pigweed, scale 0 to 100; for Plant response rating, Pigweed: Preemergence, scale 0 to 100 (0 no effect, 100 complete control)
Description: as §1

O=C1NCC(c2ccc(F)c(F)c2)C1C(=O)Nc1cccc(F)c1 (racemic) [Compound 12]
Plant response rating (windgrass; 16 g ai/ha): 0 | Plant response rating (windgrass; 31 g ai/ha): 0 | Plant response rating (windgrass; 62 g ai/ha): 0 | Plant response rating (windgrass; 125 g ai/ha): 0 | Plant response rating (windgrass; 250 g ai/ha): 5 | Plant response rating, Windgrass (windgrass; 31 g ai/ha): 0 | Plant response rating, Windgrass (windgrass; 62 g ai/ha): 0 | Plant response rating, Windgrass (windgrass; 125 g ai/ha): 0 | Plant response rating, Windgrass (windgrass; 250 g ai/ha): 0 | Plant response rating, Windgrass (windgrass; 16 g ai/ha): 0 | Plant response rating (oilseed rape; 16 g ai/ha): 10 | Plant response rating (oilseed rape; 31 g ai/ha): 10 | Plant response rating (oilseed rape; 62 g ai/ha): 10 | Plant response rating (oilseed rape; 125 g ai/ha): 20 | Plant response rating (oilseed rape; 250 g ai/ha): 25 | Plant response rating, Oilseed Rape (oilseed rape; 31 g ai/ha): 0 | Plant response rating, Oilseed Rape (oilseed rape; 62 g ai/ha): 10 | Plant response rating, Oilseed Rape (oilseed rape; 125 g ai/ha): 10 | Plant response rating, Oilseed Rape (oilseed rape; 250 g ai/ha): 20 | Plant response rating, Oilseed Rape (oilseed rape; 16 g ai/ha): 0 | Plant response rating (wheat, spring; 16 g ai/ha): 0 | Plant response rating (wheat, spring; 31 g ai/ha): 0 | Plant response rating (wheat, spring; 62 g ai/ha): 0 | Plant response rating (wheat, spring; 125 g ai/ha): 0 | Plant response rating (wheat, spring; 250 g ai/ha): 0 | Plant response rating, Wheat, Spring (wheat, spring; 31 g ai/ha): 0 | Plant response rating, Wheat, Spring (wheat, spring; 62 g ai/ha): 0 | Plant response rating, Wheat, Spring (wheat, spring; 125 g ai/ha): 0 | Plant response rating, Wheat, Spring (wheat, spring; 250 g ai/ha): 0 | Plant response rating, Wheat, Spring (wheat, spring; 16 g ai/ha): 0 | Plant response rating (wheat, winter; 16 g ai/ha): 0 | Plant response rating (wheat, winter; 31 g ai/ha): 0 | Plant response rating (wheat, winter; 62 g ai/ha): 0 | Plant response rating (wheat, winter; 125 g ai/ha): 0 | Plant response rating (wheat, winter; 250 g ai/ha): 0 | Plant response rating, Wheat, Winter (wheat, winter; 31 g ai/ha): 0 | Plant response rating, Wheat, Winter (wheat, winter; 62 g ai/ha): 0 | Plant response rating, Wheat, Winter (wheat, winter; 125 g ai/ha): 0 | Plant response rating, Wheat, Winter (wheat, winter; 250 g ai/ha): 0 | Plant response rating, Wheat, Winter (wheat, winter; 16 g ai/ha): 0 | Plant response rating (speedwell; 16 g ai/ha): 0 | Plant response rating (speedwell; 31 g ai/ha): 0 | Plant response rating (speedwell; 62 g ai/ha): 10 | Plant response rating (speedwell; 125 g ai/ha): 10 | Plant response rating (speedwell; 250 g ai/ha): 25 | Plant response rating, Speedwell (speedwell; 31 g ai/ha): 0 | Plant response rating, Speedwell (speedwell; 62 g ai/ha): 0 | Plant response rating, Speedwell (speedwell; 125 g ai/ha): 0 | Plant response rating, Speedwell (speedwell; 250 g ai/ha): 100 | Plant response rating, Speedwell (speedwell; 16 g ai/ha): 0 | Plant response rating (pigweed; 16 g ai/ha): 0 | Plant response rating (pigweed; 31 g ai/ha): 10 | Plant response rating (pigweed; 62 g ai/ha): 25 | Plant response rating (pigweed; 125 g ai/ha): 30 | Plant response rating (pigweed; 250 g ai/ha): 50 | Plant response rating, Pigweed (pigweed; 31 g ai/ha): 0 | Plant response rating, Pigweed (pigweed; 62 g ai/ha): 0 | Plant response rating, Pigweed (pigweed; 125 g ai/ha): 0 | Plant response rating, Pigweed (pigweed; 250 g ai/ha): 0 | Plant response rating, Pigweed (pigweed; 16 g ai/ha): 0

O=C1NCC(c2cc(F)c(F)c(F)c2)C1C(=O)Nc1ccccc1C(F)(F)F (racemic) [Compound 33]
Plant response rating (windgrass; 16 g ai/ha): 0 | Plant response rating (windgrass; 31 g ai/ha): 0 | Plant response rating (windgrass; 62 g ai/ha): 0 | Plant response rating (windgrass; 125 g ai/ha): 0 | Plant response rating (windgrass; 250 g ai/ha): 0 | Plant response rating (oilseed rape; 16 g ai/ha): 0 | Plant response rating (oilseed rape; 31 g ai/ha): 0 | Plant response rating (oilseed rape; 62 g ai/ha): 10 | Plant response rating (oilseed rape; 125 g ai/ha): 20 | Plant response rating (oilseed rape; 250 g ai/ha): 30 | Plant response rating (wheat, spring; 16 g ai/ha): 0 | Plant response rating (wheat, spring; 31 g ai/ha): 0 | Plant response rating (wheat, spring; 62 g ai/ha): 0 | Plant response rating (wheat, spring; 125 g ai/ha): 0 | Plant response rating (wheat, spring; 250 g ai/ha): 0 | Plant response rating (wheat, winter; 16 g ai/ha): 0 | Plant response rating (wheat, winter; 31 g ai/ha): 0 | Plant response rating (wheat, winter; 62 g ai/ha): 0 | Plant response rating (wheat, winter; 125 g ai/ha): 0 | Plant response rating (wheat, winter; 250 g ai/ha): 0 | Plant response rating (speedwell; 16 g ai/ha): 0 | Plant response rating (speedwell; 31 g ai/ha): 0 | Plant response rating (speedwell; 62 g ai/ha): 0 | Plant response rating (speedwell; 125 g ai/ha): 0 | Plant response rating (speedwell; 250 g ai/ha): 10 | Plant response rating (pigweed; 16 g ai/ha): 0 | Plant response rating (pigweed; 31 g ai/ha): 0 | Plant response rating (pigweed; 62 g ai/ha): 0 | Plant response rating (pigweed; 125 g ai/ha): 10 | Plant response rating (pigweed; 250 g ai/ha): 10

O=C1NCC(c2cccc(C(F)(F)F)c2)C1C(=O)Nc1cccc(F)c1F (stereo not drawn) [Compound 241]
Plant response rating, Windgrass (windgrass; 31 g ai/ha): 65 | Plant response rating, Windgrass (windgrass; 62 g ai/ha): 90 | Plant response rating, Windgrass (windgrass; 125 g ai/ha): 95 | Plant response rating, Windgrass (windgrass; 250 g ai/ha): 98 | Plant response rating, Oilseed Rape (oilseed rape; 31 g ai/ha): 0 | Plant response rating, Oilseed Rape (oilseed rape; 62 g ai/ha): 0 | Plant response rating, Oilseed Rape (oilseed rape; 125 g ai/ha): 5 | Plant response rating, Oilseed Rape (oilseed rape; 250 g ai/ha): 10 | Plant response rating, Wheat, Spring (wheat, spring; 31 g ai/ha): 0 | Plant response rating, Wheat, Spring (wheat, spring; 62 g ai/ha): 0 | Plant response rating, Wheat, Spring (wheat, spring; 125 g ai/ha): 25 | Plant response rating, Wheat, Spring (wheat, spring; 250 g ai/ha): 40 | Plant response rating, Wheat, Winter (wheat, winter; 31 g ai/ha): 0 | Plant response rating, Wheat, Winter (wheat, winter; 62 g ai/ha): 5 | Plant response rating, Wheat, Winter (wheat, winter; 125 g ai/ha): 10 | Plant response rating, Wheat, Winter (wheat, winter; 250 g ai/ha): 25 | Plant response rating, Speedwell (speedwell; 31 g ai/ha): 10 | Plant response rating, Speedwell (speedwell; 62 g ai/ha): 35 | Plant response rating, Speedwell (speedwell; 125 g ai/ha): 70 | Plant response rating, Speedwell (speedwell; 250 g ai/ha): 85 | Plant response rating, Pigweed (pigweed; 31 g ai/ha): 15 | Plant response rating, Pigweed (pigweed; 62 g ai/ha): 15 | Plant response rating, Pigweed (pigweed; 125 g ai/ha): 85 | Plant response rating, Pigweed (pigweed; 250 g ai/ha): 80
